Experimental data from PubChem BioAssay (NCI).
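Protocol summary: plate cells (96-well), add compound at 5 concentrations, incubate 48 h, interpolate endpoints linearly. TGI: concentration producing complete growth inhibition.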

Tests used:
Assay in all cases: DTP human tumour cell line panel, 48 h
U251 CNS = tested on: U251 CNS
SNB-19 CNS = tested on: SNB-19 CNS
K-562 leukemia = tested on: K-562 leukemia
MOLT-4 leukemia = tested on: MOLT-4 leukemia
RXF 393 renal = tested on: RXF 393 renal
NCI-H226 lung = tested on: NCI-H226 lung
MCF7 breast = tested on: MCF7 breast
NCI-H522 lung = tested on: NCI-H522 lung
NCI-H23 lung = tested on: NCI-H23 lung
M14 melanoma = tested on: M14 melanoma
HCT-15 colon = tested on: HCT-15 colon
HS 578T breast = tested on: HS 578T breast
CCRF-CEM leukemia = tested on: CCRF-CEM leukemia
A498 renal = tested on: A498 renal
IGROV1 ovarian = tested on: IGROV1 ovarian
MDA-N = tested on: MDA-N
A549 NSCLC = tested on: A549 NSCLC
COLO 205 colon = tested on: COLO 205 colon
SF-268 CNS = tested on: SF-268 CNS
KM12 colon = tested on: KM12 colon
HOP-92 NSCLC = tested on: HOP-92 NSCLC
MDA-MB-231 breast = tested on: MDA-MB-231 breast
RPMI-8226 leukemia = tested on: RPMI-8226 leukemia
OVCAR-3 ovarian = tested on: OVCAR-3 ovarian
UACC-62 melanoma = tested on: UACC-62 melanoma
BT-549 breast = tested on: BT-549 breast
TK-10 renal = tested on: TK-10 renal
HL-60(TB) leukemia = tested on: HL-60(TB) leukemia
CAKI-1 renal = tested on: CAKI-1 renal
OVCAR-5 ovarian = tested on: OVCAR-5 ovarian
SK-OV-3 ovarian = tested on: SK-OV-3 ovarian
786-0 renal = tested on: 786-0 renal
MALME-3M melanoma = tested on: MALME-3M melanoma
SF-539 CNS = tested on: SF-539 CNS
NCI-H460 lung = tested on: NCI-H460 lung
HT29 colon = tested on: HT29 colon
HCC-2998 colon = tested on: HCC-2998 colon
MDA-MB-435 = tested on: MDA-MB-435
UACC-257 melanoma = tested on: UACC-257 melanoma
OVCAR-4 ovarian = tested on: OVCAR-4 ovarian
HCT-116 colon = tested on: HCT-116 colon
UO-31 renal = tested on: UO-31 renal
NCI/ADR-RES ovarian = tested on: NCI/ADR-RES ovarian
ACHN renal = tested on: ACHN renal
SNB-75 CNS = tested on: SNB-75 CNS
SK-MEL-2 melanoma = tested on: SK-MEL-2 melanoma
PC-3 prostate = tested on: PC-3 prostate
SF-295 CNS = tested on: SF-295 CNS
HOP-62 NSCLC = tested on: HOP-62 NSCLC
SK-MEL-28 melanoma = tested on: SK-MEL-28 melanoma
SK-MEL-5 melanoma = tested on: SK-MEL-5 melanoma
SW-620 colon = tested on: SW-620 colon
DU-145 prostate = tested on: DU-145 prostate
EKVX NSCLC = tested on: EKVX NSCLC
SN12C renal = tested on: SN12C renal
LOX IMVI melanoma = tested on: LOX IMVI melanoma
OVCAR-8 ovarian = tested on: OVCAR-8 ovarian
T-47D breast = tested on: T-47D breast
SR leukemia = tested on: SR leukemia

Measured: TGI

NNc1ccccc1Cl
> 100 µM: U251 CNS | SNB-19 CNS | K-562 leukemia | MOLT-4 leukemia | RXF 393 renal | NCI-H226 lung | MCF7 breast | NCI-H522 lung | NCI-H23 lung | M14 melanoma | HCT-15 colon | HS 578T breast | CCRF-CEM leukemia | A498 renal | IGROV1 ovarian | MDA-N | A549 NSCLC | COLO 205 colon | SF-268 CNS | KM12 colon | HOP-92 NSCLC | MDA-MB-231 breast | RPMI-8226 leukemia | OVCAR-3 ovarian | UACC-62 melanoma | BT-549 breast | TK-10 renal | HL-60(TB) leukemia | CAKI-1 renal | OVCAR-5 ovarian | SK-OV-3 ovarian | 786-0 renal | MALME-3M melanoma | SF-539 CNS | NCI-H460 lung | HT29 colon | HCC-2998 colon | MDA-MB-435 | UACC-257 melanoma | OVCAR-4 ovarian | HCT-116 colon | UO-31 renal | NCI/ADR-RES ovarian | ACHN renal | SNB-75 CNS | SK-MEL-2 melanoma | PC-3 prostate | SF-295 CNS | HOP-62 NSCLC | SK-MEL-28 melanoma | SK-MEL-5 melanoma | SW-620 colon | DU-145 prostate | EKVX NSCLC | SN12C renal | LOX IMVI melanoma | OVCAR-8 ovarian | T-47D breast

CC1(O)CC23CC1CCC2(C)C12CCCC(C)(C(=O)O1)C2CC3O (stereo not drawn)
> 100 µM: U251 CNS | SNB-19 CNS | K-562 leukemia | SR leukemia | NCI-H226 lung | MCF7 breast | NCI-H522 lung | NCI-H23 lung | M14 melanoma | HCT-15 colon | HS 578T breast | CCRF-CEM leukemia | A498 renal | IGROV1 ovarian | MDA-N | A549 NSCLC | COLO 205 colon | SF-268 CNS | KM12 colon | HOP-92 NSCLC | MDA-MB-231 breast | UACC-62 melanoma | BT-549 breast | TK-10 renal | CAKI-1 renal | OVCAR-5 ovarian | SK-OV-3 ovarian | 786-0 renal | MALME-3M melanoma | SF-539 CNS | NCI-H460 lung | HT29 colon | HCC-2998 colon | MDA-MB-435 | UACC-257 melanoma | OVCAR-4 ovarian | HCT-116 colon | UO-31 renal | NCI/ADR-RES ovarian | ACHN renal | SNB-75 CNS | SK-MEL-2 melanoma | PC-3 prostate | SF-295 CNS | SK-MEL-28 melanoma | SK-MEL-5 melanoma | SW-620 colon | DU-145 prostate | EKVX NSCLC | SN12C renal | LOX IMVI melanoma | OVCAR-8 ovarian | T-47D breast

CC(=O)c1nc2ccccc2n1CC(=O)c1ccc(Cl)cc1
43.7 µM: SF-295 CNS
85.8 µM: OVCAR-8 ovarian
22.5 µM: HOP-92 NSCLC | NCI-H460 lung
60.1 µM: PC-3 prostate
14.1 µM: 786-0 renal
23.2 µM: OVCAR-3 ovarian
22.6 µM: MALME-3M melanoma
44 µM: SW-620 colon
98.5 µM: RXF 393 renal
12.6 µM: LOX IMVI melanoma
22.2 µM: NCI/ADR-RES ovarian
> 100 µM: U251 CNS | SNB-19 CNS | K-562 leukemia | MOLT-4 leukemia | SR leukemia | NCI-H226 lung | MCF7 breast | NCI-H23 lung | M14 melanoma | HCT-15 colon | HS 578T breast | CCRF-CEM leukemia | A498 renal | MDA-N | SF-268 CNS | KM12 colon | MDA-MB-231 breast | RPMI-8226 leukemia | BT-549 breast | TK-10 renal | HL-60(TB) leukemia | CAKI-1 renal | SK-OV-3 ovarian | SF-539 CNS | MDA-MB-435 | UACC-257 melanoma | OVCAR-4 ovarian | HCT-116 colon | UO-31 renal | SK-MEL-28 melanoma | DU-145 prostate | EKVX NSCLC | SN12C renal | T-47D breast
53 µM: COLO 205 colon
32.4 µM: A549 NSCLC
35.4 µM: HT29 colon
27.8 µM: UACC-62 melanoma
78.1 µM: SK-MEL-2 melanoma
23 µM: NCI-H522 lung
25.2 µM: HOP-62 NSCLC
26.1 µM: IGROV1 ovarian

COc1ccc(OC)c(-c2nc3ccccc3c(=O)[nH]2)c1
> 100 µM: U251 CNS | SNB-19 CNS | K-562 leukemia | MOLT-4 leukemia | RXF 393 renal | SR leukemia | NCI-H226 lung | MCF7 breast | NCI-H23 lung | M14 melanoma | HCT-15 colon | HS 578T breast | CCRF-CEM leukemia | A498 renal | IGROV1 ovarian | MDA-N | A549 NSCLC | COLO 205 colon | SF-268 CNS | KM12 colon | MDA-MB-231 breast | RPMI-8226 leukemia | OVCAR-3 ovarian | UACC-62 melanoma | BT-549 breast | CAKI-1 renal | OVCAR-5 ovarian | SK-OV-3 ovarian | 786-0 renal | MALME-3M melanoma | SF-539 CNS | NCI-H460 lung | HT29 colon | HCC-2998 colon | MDA-MB-435 | UACC-257 melanoma | OVCAR-4 ovarian | HCT-116 colon | UO-31 renal | NCI/ADR-RES ovarian | ACHN renal | SNB-75 CNS | SK-MEL-2 melanoma | PC-3 prostate | SF-295 CNS | HOP-62 NSCLC | SK-MEL-5 melanoma | SW-620 colon | DU-145 prostate | EKVX NSCLC | SN12C renal | OVCAR-8 ovarian | T-47D breast
